For test [1], the system named is Aβ42. Nature of the test: Aβ42 release from HEK cells stably expressing APPswe (MSD electrochemiluminescence). To be noted: 4-6 h incubation with test compound, Aβ42 secreted to cell medium. The format is cell-based, Human. How it is done:
The level of activity of the compounds on Aβ formation was tested using the following method:
Compounds were diluted in 100% DMSO and stored at […] prior to use. Human Embryonic Kidney (HEK) cell line stably expressing APP with the Swedish mutation (APPswe) were cultured using Dulbecco's Modified Eagles medium (DMEM) supplied with […] glucose, Na-pyruvate and GlutaMAX with 10% FBS, 100 U/ml penicillin-streptomycin (PEST) respectively, 1× non-essential amino acids (NEAA), […] Hepes, 100 μg/ml Zeocine. Cells at about 80% confluence were washed with PBS, detached from culture flasks using 1× Trypsin/EDTA diluted in PBS, re-suspended in cell media and plated in 384-well poly-d-lysine coated cell culture plates at about 10000-15000 cells/well, in 25 μL cell media. Optionally, cryo-preserved cells (frozen and stored at −140° C. in 90% cell media and 10% DMSO) were thawed, washed and plated as above. Next the cells were incubated for 15-24 h at 37° C. and 5% CO2, after which cell medium was changed. Fresh medium containing test compound diluted ×200 from prepared compound plate was added to the cells before further incubation for 4-6 hours at 37° C. and 5% CO2. After incubation with test compound the amount of Aβ peptides, including Aβ42, Aβ40, Aβ39, Aβ38 and Aβ37, as well as total Aβ levels, secreted to cell medium was analyzed using the electrochemiluminescence assay technology from Meso Scale Discovery (MSD), in combination with specific antibodies raised against the different Aβ peptides. Aβ42, Aβ40 and Aβ38 antibodies were purchased from MSD and Aβ37 and Aβ39 were made in house. Total Aβ was measured using a combination of 6E10 and 4G8 anti Aβ antibodies from MSD. Potential cytotoxic effects of the compounds were usually assayed by measuring the ATP content (ViaLight) from cell lysate.

Test [2] deals with Notch. Put plainly: Release and translocation of Notch intracellular domain into the nucleus, HEK/AENotch cells (NICD immunostaining, ImageXpress). The test is classed as cell-based, Human. To be noted: 3 μM Lactacystin, 4-6 h incubation, nucleus/cytosol NICD fluorescence ratio. How it is done: The level of activity of the compounds on release and translocation of Notch intracellular domain into the cell nucleus was tested using the following method:
Compounds were diluted in 100% DMSO and stored at […] prior to use. Human Embryonic Kidney cell line overexpressing Notchl-E-human-myc construct (referred to as HEK/AENotch) were cultured in T75 cm^2 or T225 cm^2 cell culture flasks using Dulbecco's Modified Eagles medium (DMEM) supplemented with […] glucose, Na-pyruvate and GlutaMAX with 10% FBS, 100 U/ml penicillin-streptomycin (PEST) respectively, 1× non-essential amino acids (NEAA), […] Hepes and 100 μg/ml Hygromycin. Cells at about 80% confluence were washed with PBS, detached from the flask bottom using 1× Trypsin/EDTA diluted in PBS, re-suspended in cell media and plated in 384-well plates at about 10000 cells/well, in 25 μL cell media. Optionally, cryo-preserved cells (frozen and stored at −140° C. in 90% cell media and 10% DMSO) were thawed, washed and plated as above. Next the cells were incubated for 15-24 h at 37° C. and 5% CO2, after which cell medium was replaced with fresh medium containing 3 μM Lactacystin and test compound diluted ×200 from prepared compound plate giving 0.5% final DMSO concentration, and the highest compound concentration typically 25 μM. Cells were then incubated 4-6 h with test compound before being fixed, washed and immunostained with NICD antibody (rabbit Notch 1 (C-20)). Image acquisition of cytosolic/membrane and nuclear fluorescence as well as subsequent analysis of the nucleus and cytosolic fluorescence ratio was carried out using ImageXpress. Potential cytotoxic effects of the compounds were usually assayed by analysis of nucleus area or cell number.

The mark [3] stands for this setting: Homo sapiens, HEK293, HEK cells expressing APPswe.

Molecules are shown by their SMILES.

As a reminder, the IC50 is the concentration that gives 50% inhibition. As to `COc1nc(Nc2ccc3c(n2)OC(C2CC2)CN(C)C3C)ccc1-c1cnn(C)c1` (single isomer, unassigned) [Example 17, 2-Cyclopropyl-N-(6-methoxy-5-(1-methyl-1H-pyrazol-4-yl)pyridin-2-yl)-4,5-dimethyl-2,3,4,5-tetrahydropyrido[3,2-f][1,4]oxazepin-8-amine], the results for the half-inhibitory concentration (IC50) in test [1] (HEK cells expressing APPswe) and in test [2] (Homo sapiens) were 14 nM and over 7900 nM, respectively. `COc1nc(Nc2ccc3c(n2)OC(C2CC2)CN(C)C3C)ccc1-c1cnn(C)c1` (single isomer, unassigned) [Example 18, 2-Cyclopropyl-N-(6-methoxy-5-(1-methyl-1H-pyrazol-4-yl)pyridin-2-yl)-4,5-dimethyl-2,3,4,5-tetrahydropyrido[3,2-f][1,4]oxazepin-8-amine]: the IC50 was 37 nM in test [1] (HEK cells expressing APPswe) and over 7900 nM in test [2]. On to `COc1nc(Nc2ccc3c(n2)OC(C2CC2)CN(C)C3C)ccc1-c1cnn(C)c1` (single isomer, unassigned) [Example 19, 2-Cyclopropyl-N-(6-methoxy-5-(1-methyl-1H-pyrazol-4-yl)pyridin-2-yl)-4,5-dimethyl-2,3,4,5-tetrahydropyrido[3,2-f][1,4]oxazepin-8-amine], for which the IC50 in test [1] (HEK cells expressing APPswe) is 124 nM. Turning to `COc1nc(Nc2ccc3c(n2)OC(C2CC2)CN(C)C3C)ccc1-c1cnn(C)c1` (single isomer, unassigned) [Example 20, 2-Cyclopropyl-N-(6-methoxy-5-(1-methyl-1H-pyrazol-4-yl)pyridin-2-yl)-4,5-dimethyl-2,3,4,5-tetrahydropyrido[3,2-f][1,4]oxazepin-8-amine], the half-inhibitory concentration (IC50) is 91 nM in test [1] (HEK cells expressing APPswe) and over 7900 nM in test [2]. Regarding `COc1nc(Nc2cc(C)c3c(n2)OC(c2nc(C)cs2)CN(C)C3)ccc1-c1cnn(C)c1` (single isomer, unassigned) [Example 21, N-(6-Methoxy-5-(1-methyl-1H-pyrazol-4-yl)pyridin-2-yl)-4,6-dimethyl-2-(4-methylthiazol-2-yl)-2,3,4,5-tetrahydropyrido[3,2-f][1,4]oxazepin-8-amine], the 50% inhibitory concentration (IC50) in test [1] (HEK cells expressing APPswe) is 179 nM. As for `COc1nc(Nc2cc(C)c3c(n2)OC(c2nc(C)cs2)CN(C)C3)ccc1-c1cnn(C)c1` (single isomer, unassigned) [Example 22, N-(6-Methoxy-5-(1-methyl-1H-pyrazol-4-yl)pyridin-2-yl)-4,6-dimethyl-2-(4-methylthiazol-2-yl)-2,3,4,5-tetrahydropyrido[3,2-f][1,4]oxazepin-8-amine], the 50% inhibitory concentration (IC50) in test [1] (HEK cells expressing APPswe) came out at 10 nM; in test [2] (Homo sapiens), 1680 nM. Consider `COc1nc(Nc2cc(C)c3c(n2)OC(C2CCCO2)CN(C)C3)ccc1-c1cnn(C)c1` (single isomer, unassigned) [Example 25, N-(6-Methoxy-5-(1-methyl-1H-pyrazol-4-yl)pyridin-2-yl)-4,6-dimethyl-2-(tetrahydrofuran-2-yl)-2,3,4,5-tetrahydropyrido[3,2-f][1,4]oxazepin-8-amine], for which the values for the half-inhibitory concentration (IC50) in test [1] (setting [3]) and in test [2] (Homo sapiens) were 73 nM and over 7900 nM, respectively. Consider `COc1nc(Nc2cc(C)c3c(n2)OC(C2CCCO2)CN(C)C3)ccc1-c1cnn(C)c1` (single isomer, unassigned) [Example 26, N-(6-Methoxy-5-(1-methyl-1H-pyrazol-4-yl)pyridin-2-yl)-4,6-dimethyl-2-(tetrahydrofuran-2-yl)-2,3,4,5-tetrahydropyrido[3,2-f][1,4]oxazepin-8-amine], for which the results for the IC50 in test [1] (HEK cells expressing APPswe) and in test [2] were 56 nM and over 7900 nM, respectively.

Turning to `COc1nc(Nc2ccc3c(n2)OC(c2nc(C)cs2)C(C)N(C)C3)ccc1-c1cnn(C)c1` (single isomer, unassigned) [Example 29, N-(6-Methoxy-5-(1-methyl-1H-pyrazol-4-yl)pyridin-2-yl)-3,4-dimethyl-2-(4-methylthiazol-2-yl)-2,3,4,5-tetrahydropyrido[3,2-f][1,4]oxazepin-8-amine], the figures for the concentration for half-maximal inhibition (IC50) in test [1] (HEK cells expressing APPswe) and in test [2] were 68 nM and 5000 nM, respectively. Take `COc1nc(Nc2ccc3c(n2)OC(c2nc(C)cs2)C(C)N(C)C3)ccc1-c1cnn(C)c1` (single isomer, unassigned) [Example 30, N-(6-Methoxy-5-(1-methyl-1H-pyrazol-4-yl)pyridin-2-yl)-3,4-dimethyl-2-(4-methylthiazol-2-yl)-2,3,4,5-tetrahydropyrido[3,2-f][1,4]oxazepin-8-amine]: the IC50 was 7 nM in test [1] (HEK cells expressing APPswe) and over 25000 nM in test [2]. For the compound `COc1nc(Nc2ccc3c(n2)OC(CC(F)(F)F)CN(C)C3)ccc1-c1ccc(=O)n(C)c1` (single isomer, unassigned) [Example 43, 5-(2-Methoxy-6-(4-methyl-2-(2,2,2-trifluoroethyl)-2,3,4,5-tetrahydropyrido[3,2-f][1,4]oxazepin-8-ylamino)pyridin-3-yl)-1-methylpyridin-2(1H)-one], the half-inhibitory concentration (IC50) in test [1] (setting [3]) was found to be 493 nM. As to `COc1nc(Nc2ccc3c(n2)OC(CC(F)(F)F)CN(C)C3)ccc1-c1ccc(=O)n(C)c1` (single isomer, unassigned) [Example 44, 5-(2-Methoxy-6-(4-methyl-2-(2,2,2-trifluoroethyl)-2,3,4,5-tetrahydropyrido[3,2-f][1,4]oxazepin-8-ylamino)pyridin-3-yl)-1-methylpyridin-2(1H)-one], the IC50 in test [1] (HEK cells expressing APPswe) was found to be 374 nM.

As to `COc1nc(Nc2ccc3c(n2)OC(CC(F)(F)F)CN(C)C3)ccc1-c1cnc(C)o1` (single isomer, unassigned) [Example 63, N-[6-Methoxy-5-(2-methyloxazol-5-yl)-2-pyridyl]-4-methyl-2-(2,2,2-trifluoroethyl)-3,5-dihydro-2H-pyrido[3,2-f][1,4]oxazepin-8-amine], the concentration for half-maximal inhibition (IC50) in test [1] (setting [3]) came to 3 nM. Turning to `COc1nc(Nc2ccc3c(n2)OC(CC(F)(F)F)CN(C)C3)ccc1-c1cnc(C)o1` (single isomer, unassigned) [Example 64, N-[6-Methoxy-5-(2-methyloxazol-5-yl)-2-pyridyl]-4-methyl-2-(2,2,2-trifluoroethyl)-3,5-dihydro-2H-pyrido[3,2-f][1,4]oxazepin-8-amine], the IC50 in test [1] (HEK cells expressing APPswe) was 4 nM. The same measure, in the same setting: under `COc1nc(Nc2ccc3c(n2)OC(c2nc(C)cs2)CN(C)C3)ccc1-c1cnn(C)c1` (single isomer, unassigned; (+)) [Example 10, (+)-N-(6-Methoxy-5-(1-methyl-1H-pyrazol-4-yl)pyridin-2-yl)-4-methyl-2-(4-methylthiazol-2-yl)-2,3,4,5-tetrahydropyrido[3,2-f][1,4]oxazepin-8-amine] stands 226 nM. Take `CN1Cc2ccc(Nc3ccc(-c4cnn(C)c4)cn3)nc2O[C@H](c2ccccc2)C1` [Example 15, (R)-4-Methyl-N-(5-(1-methyl-1H-pyrazol-4-yl)pyridin-2-yl)-2-phenyl-2,3,4,5-tetrahydropyrido[3,2-f][1,4]oxazepin-8-amine]: the IC50 in test [1] (setting [3]) was found to be 137 nM. Take `COc1nc(Nc2ccc3c(n2)OC(c2ncccc2C)CN(C)C3)ccc1-c1cnn(C)c1` (centres unmarked) [Example 16, N-(6-Methoxy-5-(1-methyl-1H-pyrazol-4-yl)pyridin-2-yl)-4-methyl-2-(3-methylpyridin-2-yl)-2,3,4,5-tetrahydropyrido[3,2-f][1,4]oxazepin-8-amine]: the 50% inhibitory concentration (IC50) in test [1] (setting [3]) is 305 nM. On the same count and under the same terms, the same measure for `COc1nc(Nc2ccc3c(n2)O[C@H](c2ccccc2)CN(C)C3)ccc1-c1ccc(=O)n(C)c1` [Example 45, (R)-5-(2-Methoxy-6-(4-methyl-2-phenyl-2,3,4,5-tetrahydropyrido[3,2-f][1,4]oxazepin-8-ylamino)pyridin-3-yl)-1-methylpyridin-2(1H)-one]: 38 nM.

(Values after US20120122843A1, “Compounds and Their Use for Treatment of Amyloid Beta-Related Diseases” (ASTRAZENECA AB, priority 2010, published 2012).)
